Measurements from EP4603105A1, “PHARMACEUTICAL COMPOSITION CONTAINING CYCLIC COMPOUND HAVING SELECTIVE KRAS INHIBITORY EFFECT AGAINST HRAS AND NRAS” (CHUGAI SEIYAKU KABUSHIKI KAISHA, priority 2022, dated 2024).

What was measured:
[1] = test system: human lung cancer strain NCI-H441; format: cell-based
Summary of the method: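 Step one: dispense the test compound in serial DMSO dilutions. Step three: add the reagent and measure […].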

[2] = biological target: GDP-bound NRAS wild-type protein (Homo sapiens, UniProt P01111); assay: Binding to NRAS by surface plasmon resonance (SPR), KD and KD ratio to KRAS; conditions: ratio of the KD value with respect to GDP-bound NRAS wild-type protein to the KD value with respect to KRAS
Summary of the method: (§1)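 Captured GDP-RAS (~100–300 RU) was exposed to increasing compound concentrations, 75 s per step, in running buffer with 10 µM GDP, 10 mM MgCl2 and 4% DMSO at pH 7.4.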

HRAS wild-type protein = HRAS wild-type protein (Homo sapiens, UniProt P01112); assay: Binding to HRAS by surface plasmon resonance (SPR), KD and KD ratio to KRAS; conditions: ratio of the KD value with respect to HRAS wild-type protein to the KD value with respect to KRAS
Summary of the method: as §1

Chain of GDP-bound NRAS wild-type protein (P01111 whole entry): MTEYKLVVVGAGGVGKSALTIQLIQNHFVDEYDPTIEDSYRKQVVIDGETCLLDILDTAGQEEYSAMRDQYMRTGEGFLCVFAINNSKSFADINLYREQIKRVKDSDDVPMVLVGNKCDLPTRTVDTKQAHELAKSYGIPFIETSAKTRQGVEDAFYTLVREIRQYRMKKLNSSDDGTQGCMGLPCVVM
Chain of HRAS wild-type protein (P01112 whole entry): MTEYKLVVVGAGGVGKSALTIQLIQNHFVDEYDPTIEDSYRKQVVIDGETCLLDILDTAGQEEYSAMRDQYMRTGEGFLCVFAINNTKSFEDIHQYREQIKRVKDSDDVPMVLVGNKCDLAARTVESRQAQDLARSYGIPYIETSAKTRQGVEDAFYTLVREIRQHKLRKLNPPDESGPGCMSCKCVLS

Compound | IC50 [1] [nM] | NRAS /KRAS [2] | HRAS /KRAS (HRAS wild-type protein)
CCCN(C)C(=O)[C@@H]1CC(=O)N(C)[C@@H](C(C)C)C(=O)N[C@@H]([C@@H](C)CC)C(=O)N(C)CC(=O)N(C)[C@H]2C/C=C\CCN(C2=O)[C@@H](Cc2ccc(C(F)(F)F)cc2)C(=O)N(C)CC(=O)N[C@@H](CCc2ccc(C(F)(F)F)c(OC)c2)C(=O)N2C[C@@H](C)C[C@H]2C(=O)NC2(CCC2)C(=O)N(C)[C@@H](C2CCCC2)C(=O)N1C [PP2067] | 17.7 | AA (a compound having 20 or more is denoted as AA) | A (a compound having 10 or more and less than 20 is denoted as A)
CCC[C@H]1C(=O)N[C@@H]([C@@H](C)CC)C(=O)N(C)CC(=O)N(C)[C@H]2C/C=C\CCN(C2=O)[C@@H](Cc2ccc(C)cc2)C(=O)N(C)CC(=O)N[C@@H](CCc2ccc(C(F)(F)F)c(OC)c2)C(=O)N2C[C@H](OCC)C[C@H]2C(=O)NC2(CC(C)(C)C2)C(=O)N(C)[C@@H](C(CC)CC)C(=O)N(C)[C@H](C(=O)N(C)C)CC(=O)N1C [PP2068] | 11.1 | A (a compound having 10 or more and less than 20 is denoted as A) | B (a compound having 3 or more and less than 10 is denoted as B)
CC[C@H](C)[C@@H]1NC(=O)[C@H](C2CC2)N(C)C(=O)C[C@@H](C(=O)N(C)CC)N(C)C(=O)[C@H](C2CCCC2)N(C)C(=O)C2(CCC2)NC(=O)[C@@H]2C[C@H](C)CN2C(=O)[C@H](CCc2ccc(C(F)(F)F)c(OC)c2)NC(=O)CN(C)C(=O)[C@H](Cc2ccc(C(F)(F)F)cc2)N2CC/C=C\C[C@@H](C2=O)N(C)C(=O)CN(C)C1=O [PP2069] | 27.4 | AA (a compound having 20 or more is denoted as AA) | A (a compound having 10 or more and less than 20 is denoted as A)
CCCN(C)C(=O)[C@@H]1CC(=O)N(C)[C@@H](C2CC2)C(=O)N[C@@H]([C@@H](C)CC)C(=O)N(C)CC(=O)N(C)[C@H]2C/C=C\CCN(C2=O)[C@@H](Cc2ccc(C(F)(F)F)cc2)C(=O)N(C)CC(=O)N[C@@H](CCc2ccc(C(F)(F)F)c(OC)c2)C(=O)N2C[C@@H](C)C[C@H]2C(=O)NC2(CCC2)C(=O)N(C)[C@@H](C2CCCC2)C(=O)N1C [PP2070] | 11.3 | A (a compound having 10 or more and less than 20 is denoted as A) | A (a compound having 10 or more and less than 20 is denoted as A)
CC[C@H](C)[C@@H]1NC(=O)[C@H](C2CCC2)N(C)C(=O)C[C@@H](C(=O)N(C)CC)N(C)C(=O)[C@H](C2CCCC2)N(C)C(=O)C2(CCC2)NC(=O)[C@@H]2C[C@H](C)CN2C(=O)[C@H](CCc2ccc(C(F)(F)F)c(OC)c2)NC(=O)CN(C)C(=O)[C@H](Cc2ccc(C(F)(F)F)cc2)N2CC/C=C\C[C@@H](C2=O)N(C)C(=O)CN(C)C1=O [PP2071] | 6.2 | A (a compound having 10 or more and less than 20 is denoted as A) | A (a compound having 10 or more and less than 20 is denoted as A)
CCCN(C)C(=O)[C@@H]1CC(=O)N(C)[C@@H](C2CCC2)C(=O)N[C@@H]([C@@H](C)CC)C(=O)N(C)CC(=O)N(C)[C@H]2C/C=C\CCN(C2=O)[C@@H](Cc2ccc(C(F)(F)F)cc2)C(=O)N(C)CC(=O)N[C@@H](CCc2ccc(C(F)(F)F)c(OC)c2)C(=O)N2C[C@@H](C)C[C@H]2C(=O)NC2(CCC2)C(=O)N(C)[C@@H](C2CCCC2)C(=O)N1C [PP2072] | 8.5 | A (a compound having 10 or more and less than 20 is denoted as A) | A (a compound having 10 or more and less than 20 is denoted as A)
C#CC[C@H]1C(=O)N[C@@H]([C@@H](C)CC)C(=O)N(C)CC(=O)N(C)[C@H]2C/C=C\CCN(C2=O)[C@@H](Cc2ccc(C(F)(F)F)cc2)C(=O)N(C)CC(=O)N[C@@H](CCc2cc(F)c(C(F)(F)F)c(F)c2)C(=O)N2C[C@H](OCC)C[C@H]2C(=O)NC2(CC(C)(C)C2)C(=O)N(C)[C@@H](C2CCCC2)C(=O)N(C)[C@H](C(=O)N(C)CC)CC(=O)N1C [PP2073] | 3.5 | A (a compound having 10 or more and less than 20 is denoted as A) | A (a compound having 10 or more and less than 20 is denoted as A)
C#CC[C@H]1C(=O)N[C@@H]([C@@H](C)CC)C(=O)N(C)CC(=O)N(C)[C@H]2C/C=C\CCN(C2=O)[C@@H](Cc2ccc(C(F)(F)F)cc2)C(=O)N(C)CC(=O)N[C@@H](CCc2cc(F)c(C(F)(F)F)c(F)c2)C(=O)N2C[C@H](OCC)C[C@H]2C(=O)NC2(CC(C)(C)C2)C(=O)N(C)[C@@H](C2CCCC2)C(=O)N(C)[C@H](C(=O)N(C)CCC)CC(=O)N1C [PP2074] | 5.9 | A (a compound having 10 or more and less than 20 is denoted as A) | A (a compound having 10 or more and less than 20 is denoted as A)
C#CC[C@H]1C(=O)N[C@@H]([C@@H](C)CC)C(=O)N(C)CC(=O)N(C)[C@H]2C/C=C\CCN(C2=O)[C@@H](Cc2ccc(C(F)(F)F)cc2)C(=O)N(C)CC(=O)N[C@@H](CCc2cc(F)c(C(F)(F)F)c(F)c2)C(=O)N2C[C@@H](C)C[C@H]2C(=O)NC2(CC(C)(C)C2)C(=O)N(C)[C@@H](C2CCCC2)C(=O)N(C)[C@H](C(=O)N(C)CC)CC(=O)N1C [PP2075] | 11.8 | A (a compound having 10 or more and less than 20 is denoted as A) | A (a compound having 10 or more and less than 20 is denoted as A)
C#CC[C@H]1C(=O)N[C@@H]([C@@H](C)CC)C(=O)N(C)CC(=O)N(C)[C@H]2C/C=C\CCN(C2=O)[C@@H](Cc2ccc(C(F)(F)F)cc2)C(=O)N(C)CC(=O)N[C@@H](CCc2cc(F)c(C(F)(F)F)c(F)c2)C(=O)N2C[C@@H](C)C[C@H]2C(=O)NC2(CC(C)(C)C2)C(=O)N(C)[C@@H](C2CCCC2)C(=O)N(C)[C@H](C(=O)N(C)CCC)CC(=O)N1C [PP2076] | 15.6 | A (a compound having 10 or more and less than 20 is denoted as A) | A (a compound having 10 or more and less than 20 is denoted as A)
CCCN(C)C(=O)[C@@H]1CC(=O)N(C)[C@@H](C(C)C)C(=O)N[C@@H]([C@@H](C)CC)C(=O)N(C)CC(=O)N(C)[C@H]2C/C=C\CCN(C2=O)[C@@H](Cc2ccc(C(F)(F)F)cc2)C(=O)N(C)CC(=O)N[C@@H](CCc2cc(F)c(C(F)(F)F)c(F)c2)C(=O)N2C[C@@H](C)C[C@H]2C(=O)NC2(CCC2)C(=O)N(C)[C@@H](C2CCCC2)C(=O)N1C [PP2079] | 16 | A (a compound having 10 or more and less than 20 is denoted as A) | A (a compound having 10 or more and less than 20 is denoted as A)
CC[C@H](C)[C@@H]1NC(=O)[C@H](C2CC2)N(C)C(=O)C[C@@H](C(=O)N(C)CC)N(C)C(=O)[C@H](C2CCCC2)N(C)C(=O)C2(CCC2)NC(=O)[C@@H]2C[C@H](C)CN2C(=O)[C@H](CCc2cc(F)c(C(F)(F)F)c(F)c2)NC(=O)CN(C)C(=O)[C@H](Cc2ccc(C(F)(F)F)cc2)N2CC/C=C\C[C@@H](C2=O)N(C)C(=O)CN(C)C1=O [PP2080] | 17.8 | A (a compound having 10 or more and less than 20 is denoted as A) | A (a compound having 10 or more and less than 20 is denoted as A)
CCCN(C)C(=O)[C@@H]1CC(=O)N(C)[C@@H](C2CC2)C(=O)N[C@@H]([C@@H](C)CC)C(=O)N(C)CC(=O)N(C)[C@H]2C/C=C\CCN(C2=O)[C@@H](Cc2ccc(C(F)(F)F)cc2)C(=O)N(C)CC(=O)N[C@@H](CCc2cc(F)c(C(F)(F)F)c(F)c2)C(=O)N2C[C@@H](C)C[C@H]2C(=O)NC2(CCC2)C(=O)N(C)[C@@H](C2CCCC2)C(=O)N1C [PP2081] | 11.2 | A (a compound having 10 or more and less than 20 is denoted as A) | A (a compound having 10 or more and less than 20 is denoted as A)
CCCN(C)C(=O)[C@@H]1CC(=O)N(C)[C@@H](C2CCC2)C(=O)N[C@@H]([C@@H](C)CC)C(=O)N(C)CC(=O)N(C)[C@H]2C/C=C\CCN(C2=O)[C@@H](Cc2ccc(C(F)(F)F)cc2)C(=O)N(C)CC(=O)N[C@@H](CCc2cc(F)c(C(F)(F)F)c(F)c2)C(=O)N2C[C@@H](C)C[C@H]2C(=O)NC2(CCC2)C(=O)N(C)[C@@H](C2CCCC2)C(=O)N1C [PP2083] | 10.3 | A (a compound having 10 or more and less than 20 is denoted as A) | B (a compound having 3 or more and less than 10 is denoted as B)
C#CCN1CC(=O)N(C)[C@H]2C/C=C\CCN(C2=O)[C@@H](Cc2ccc(C(F)(F)F)cc2)C(=O)N(C)CC(=O)N[C@@H](CCc2cc(F)c(C(F)(F)F)c(F)c2)C(=O)N2C[C@H](OCC)C[C@H]2C(=O)NC2(CC(C)(C)C2)C(=O)N(C)[C@@H](C2CCCC2)C(=O)N(C)[C@H](C(=O)N(C)C)CC(=O)N(C)[C@@H](CC)C(=O)N[C@@H]([C@@H](C)CC)C1=O [PP2087] | 4.8 | A (a compound having 10 or more and less than 20 is denoted as A) | A (a compound having 10 or more and less than 20 is denoted as A)
CCC[C@H]1C(=O)N[C@@H]([C@@H](C)CC)C(=O)N(C2CC2)CC(=O)N(C)[C@H]2C/C=C\CCN(C2=O)[C@@H](Cc2ccc(C)cc2)C(=O)N(C)CC(=O)N[C@@H](CCc2cc(F)c(C(F)(F)F)c(F)c2)C(=O)N2C[C@H](OCC)C[C@H]2C(=O)NC2(CC(C)(C)C2)C(=O)N(C)[C@@H](C2CCCC2)C(=O)N(C)[C@H](C(=O)N(C)C)CC(=O)N1C [PP2093] | 7.4 | A (a compound having 10 or more and less than 20 is denoted as A) | A (a compound having 10 or more and less than 20 is denoted as A)
